# Assay results from the NIST ThermoML archive (doi:10.1021/je5003779).
# Numbers after ± are expanded uncertainties.
# Experiments:
# [1] = refractive index (other wavelength) (dimensionless); conditions: 101.3 kPa, Liquid, Wavelength=632.8 nm, Standard Abbe refractometry
# [2] = heat capacity at constant pressure per volume; xn = mol fraction of the nth substance listed; conditions: 101 kPa, Liquid, Differential Scanning Calorimeter, x1 = 0.133
# [3] = refractive index (other wavelength) (dimensionless); xn = mol fraction of the nth substance listed; conditions: 296.27 K, 101 kPa, Liquid, Wavelength=632.8 nm, Standard Abbe refractometry
smiles,measurement,setting,value
CCn1cc[n+](C)c1.O=S(=O)([N-]S(=O)(=O)C(F)(F)F)C(F)(F)F,refractive index,[1]; 285.03 K,1.4252 ± 0.0004
same,refractive index,[1]; 287.17 K,1.4246 ± 0.0004
same,refractive index,[1]; 288.97 K,1.4242 ± 0.0004
same,refractive index,[1]; 290.28 K,1.4238 ± 0.0004
same,refractive index,[1]; 291.11 K,1.4236 ± 0.0004
same,refractive index,[1]; 292.19 K,1.4233 ± 0.0004
same,refractive index,[1]; 293.16 K,1.423 ± 0.0004
same,refractive index,[1]; 294.21 K,1.4227 ± 0.0004
same,refractive index,[1]; 295.18 K,1.4225 ± 0.0004
same,refractive index,[1]; 297.26 K,1.4219 ± 0.0004
CCn1cc[n+](C)c1.O=S(=O)([N-]S(=O)(=O)C(F)(F)F)C(F)(F)F + CCCO,heat capacity,[2]; 295 K,2448000 ± 120000 J/K/m3
same,heat capacity,[2]; 296 K,2164000 ± 110000 J/K/m3
same,heat capacity,[2]; 297 K,2118000 ± 110000 J/K/m3
same,heat capacity,[2]; 298 K,2122000 ± 110000 J/K/m3
same,heat capacity,[2]; 299 K,2105000 ± 100000 J/K/m3
same,heat capacity,[2]; 300 K,2103000 ± 100000 J/K/m3
same,heat capacity,[2]; 301 K,2101000 ± 100000 J/K/m3
same,heat capacity,[2]; 302 K,2082000 ± 100000 J/K/m3
same,heat capacity,[2]; 303 K,2087000 ± 100000 J/K/m3
same,heat capacity,[2]; 304.01 K,2092000 ± 100000 J/K/m3
same,heat capacity,[2]; 305 K,2090000 ± 100000 J/K/m3
same,heat capacity,[2]; 306 K,2090000 ± 100000 J/K/m3
same,heat capacity,[2]; 307 K,2094000 ± 100000 J/K/m3
same,heat capacity,[2]; 308 K,2095000 ± 100000 J/K/m3
same,heat capacity,[2]; 309 K,2098000 ± 100000 J/K/m3
same,heat capacity,[2]; 310 K,2097000 ± 100000 J/K/m3
same,heat capacity,[2]; 311 K,2098000 ± 100000 J/K/m3
same,heat capacity,[2]; 312 K,2102000 ± 100000 J/K/m3
same,heat capacity,[2]; 313 K,2103000 ± 100000 J/K/m3
same,heat capacity,[2]; 314 K,2103000 ± 100000 J/K/m3
same,heat capacity,[2]; 315 K,2108000 ± 100000 J/K/m3
same,heat capacity,[2]; 316 K,2108000 ± 100000 J/K/m3
same,heat capacity,[2]; 317 K,2111000 ± 110000 J/K/m3
same,heat capacity,[2]; 318 K,2113000 ± 110000 J/K/m3
same,heat capacity,[2]; 319 K,2114000 ± 110000 J/K/m3
same,heat capacity,[2]; 320 K,2117000 ± 110000 J/K/m3
same,heat capacity,[2]; 321 K,2117000 ± 110000 J/K/m3
same,heat capacity,[2]; 322 K,2121000 ± 110000 J/K/m3
same,heat capacity,[2]; 323 K,2124000 ± 110000 J/K/m3
same,heat capacity,[2]; 324 K,2125000 ± 110000 J/K/m3
same,heat capacity,[2]; 325 K,2124000 ± 110000 J/K/m3
same,heat capacity,[2]; 326 K,2129000 ± 110000 J/K/m3
same,heat capacity,[2]; 327 K,2131000 ± 110000 J/K/m3
same,heat capacity,[2]; 328 K,2133000 ± 110000 J/K/m3
same,heat capacity,[2]; 329.01 K,2135000 ± 110000 J/K/m3
same,heat capacity,[2]; 330 K,2134000 ± 110000 J/K/m3
same,heat capacity,[2]; 331 K,2139000 ± 110000 J/K/m3
same,refractive index,[3]; x1 = 0.021,1.3854 ± 0.0004
same,refractive index,[3]; x1 = 0.056,1.3896 ± 0.0004
same,refractive index,[3]; x1 = 0.097,1.3935 ± 0.0004
same,refractive index,[3]; x1 = 0.142,1.3971 ± 0.0004
same,refractive index,[3]; x1 = 0.149,1.3977 ± 0.0004
same,refractive index,[3]; x1 = 0.192,1.4006 ± 0.0004
same,refractive index,[3]; x1 = 0.243,1.4036 ± 0.0004
same,refractive index,[3]; x1 = 0.306,1.4064 ± 0.0004
same,refractive index,[3]; x1 = 0.397,1.4099 ± 0.0004
same,refractive index,[3]; x1 = 0.502,1.4131 ± 0.0004
same,refractive index,[3]; x1 = 0.699,1.4174 ± 0.0004
same,refractive index,[3]; x1 = 0.855,1.4199 ± 0.0004
same,refractive index,[3]; x1 = 1,1.4222 ± 0.0004
CCCO [propan-1-ol],refractive index,[1]; 284.73 K,1.387 ± 0.0004
same,refractive index,[1]; 286.91 K,1.3861 ± 0.0004
same,refractive index,[1]; 288.21 K,1.3856 ± 0.0004
same,refractive index,[1]; 289.24 K,1.3851 ± 0.0004
same,refractive index,[1]; 290.26 K,1.3847 ± 0.0004
same,refractive index,[1]; 291.26 K,1.3843 ± 0.0004
same,refractive index,[1]; 292.59 K,1.3837 ± 0.0004
same,refractive index,[1]; 293.69 K,1.3833 ± 0.0004
same,refractive index,[1]; 296.27 K,1.3823 ± 0.0004
CCCO [propan-1-ol] + CCn1cc[n+](C)c1.O=S(=O)([N-]S(=O)(=O)C(F)(F)F)C(F)(F)F,refractive index,[3]; x2 = 0,1.3823 ± 0.0004
